# In patent US10442803B2, “Tricyclic heterocycles as bet protein inhibitors” (Incyte Corporation, priority 2013, dated 2019):
# Structures can show the parent of a compound that is named as a salt.
# System: KMS.12.BM cells
# Test: KMS.12.BM cell viability assay
# Type: cell-based
# Details: 72 h; KMS.12.BM human myeloma cells, 3 days, Cell Titer-GLO ATP quantitation; read-out: KMS cellular IC50
# Method in brief: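 Human myeloma KMS.12.BM cells, 5000 per well in RPMI/10% FBS, exposed 3 days to compound concentration range. Viability from ATP-based Cell Titer-GLO luminescence; IC50 derived.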
row,SMILES,IC50
1,"Cc1nnc2ccc3c(cc(-c4ccn(CCC(=O)NC5CCOCC5)n4)n3Cc3cccc(Cl)c3)n12 [Example 170, 3-{3-[6-(3-Chlorobenzyl)-1-methyl-6H-pyrrolo[2,3-e][1,2,4]triazolo[4,3-a]pyridin-7-yl]-1H-pyrazol-1-yl}-N-(tetrahydro-2H-pyran-4-yl)propanamide trifluoroacetate salt]",≤ 1 µM
2,"Cc1cc2c(cc(NCCN3CCOCC3)c3nnc(C)n32)n1Cc1ccccc1 [Example 208, 6-Benzyl-1,7-dimethyl-N-(2-morpholin-4-ylethyl)-6H-pyrrolo[2,3-e][1,2,4]triazolo[4,3-a]pyridin-4-amine]",1 to 10 µM
3,"Cc1cc2c(cc(Nc3cccnc3)c3nnc(C)n32)n1Cc1ccccc1 [Example 256, 6-Benzyl-1,7-dimethyl-N-(pyridin-3-yl)-6H-pyrrolo[2,3-e][1,2,4]triazolo[4,3-a]pyridin-4-amine]",≤ 1 µM
4,"CNC(=O)CCn1ccc(-c2cc3c(ccc4nnc(C)n43)n2Cc2cccc(Cl)c2)n1 [Example 174, 3-{3-[6-(3-Chlorobenzyl)-1-methyl-6H-pyrrolo[2,3-e][1,2,4]triazolo[4,3-a]pyridin-7-yl]-1H-pyrazol-1-yl}-N-methylpropanamide trifluoroacetate salt]",≤ 1 µM
5,"Cc1cc2c(cc(Nc3ccncc3)c3nnc(C)n32)n1Cc1ccccc1 [Example 255, 6-Benzyl-1,7-dimethyl-N-(pyridin-4-yl)-6H-pyrrolo[2,3-e][1,2,4]triazolo[4,3-a]pyridin-4-amine]",≤ 1 µM
6,"Cc1nnc2ccc3c(cc(-c4ccn(CCO)n4)n3Cc3cccc(Cl)c3)n12 [Example 178, 2-{3-[6-(3-Chlorobenzyl)-1-methyl-6H-pyrrolo[2,3-e][1,2,4]triazolo[4,3-a]pyridin-7-yl]-1H-pyrazol-1-yl}ethanol trifluoroacetate salt]",≤ 1 µM
7,"Cc1cc2c(cc(NC(N)=O)c3nnc(C)n32)n1Cc1cccc(F)c1 [Example 235, 1-(6-(3-Fluorobenzyl)-1,7-dimethyl-6H-pyrrolo[2,3-e][1,2,4]triazolo[4,3-a]pyridin-4-yl)urea]",≤ 1 µM
8,"Cc1nnc2ccc3c(cc(C(=O)NCCO)n3Cc3cccc(Cl)c3)n12 [Example 117, 6-(3-Chlorobenzyl)-N-(2-hydroxyethyl)-1-methyl-6H-pyrrolo[2,3-e][1,2,4]triazolo[4,3-a]pyridine-7-carboxamide trifluoroacetate salt]",≤ 1 µM
9,"CCNC(=O)c1cc2c(ccc3nnc(C)n32)n1Cc1cccc(CN2CCC2)c1 [Example 121, 6-[3-(Azetidin-1-ylmethyl)benzyl]-N-ethyl-1-methyl-6H-pyrrolo[2,3-e][1,2,4]triazolo[4,3-a]pyridine-7-carboxamide bis(trifluoroacetate) salt]",≤ 1 µM
10,"Cc1nnc2ccc3c(cc(-c4ccn(CCC(=O)N(C)C)n4)n3Cc3ccccc3)n12 [Example 95, 3-[3-(6-benzyl-1-methyl-6H-pyrrolo[2,3-e][1,2,4]triazolo[4,3-a]pyridin-7-yl)-1H-pyrazol-1-yl]-N,N-dimethylpropanamide]",≤ 1 µM
11,"Cc1cc2c(ccc3nnc(C)n32)n1Cc1cccnc1 [Example 11, 1,7-dimethyl-6-(pyridin-3-ylmethyl)-6H-pyrrolo[2,3-e][1,2,4]triazolo[4,3-a]pyridine]",1 to 10 µM
12,"Cc1cc2c(ccc3nnc(C)n32)n1Cc1ccccc1F [Example 14, 6-(2-fluorobenzyl)-1,7-dimethyl-6H-pyrrolo[2,3-e][1,2,4]triazolo[4,3-a]pyridine]",≤ 1 µM
13,"CNC(=O)c1cc2c(ccc3nnc(C)n32)n1Cc1ccccc1 [Example 82, 6-benzyl-N,1-dimethyl-6H-pyrrolo[2,3-e][1,2,4]triazolo[4,3-a]pyridine-7-carboxamide]",≤ 1 µM
14,"Cc1cc2c(cc(N[C@H]3CCNC3)c3nnc(C)n32)n1Cc1ccccc1 [Example 152, 6-benzyl-1,7-dimethyl-N-[(3S)-pyrrolidin-3-yl]-6H-pyrrolo[2,3-e][1,2,4]triazolo[4,3-a]pyridin-4-amine bis(trifluoroacetate) salt]",≤ 1 µM
15,"Cc1nnc2ccc3c(cc(-c4ccsc4)n3Cc3ccccc3)n12 [Example 72, 6-benzyl-1-methyl-7-(3-thienyl)-6H-pyrrolo[2,3-e][1,2,4]triazolo[4,3-a]pyridine]",≤ 1 µM
16,"Cc1cc2c(cc(NCC3CCC3)c3nnc(C)n32)n1Cc1ccccc1 [Example 241, 6-Benzyl-N-(cyclobutylmethyl)-1,7-dimethyl-6H-pyrrolo[2,3-e][1,2,4]triazolo[4,3-a]pyridin-4-amine]",1 to 10 µM
17,"Cc1cc2c(cc(NC(N)=O)c3nnc(C)n32)n1Cc1cccc(F)c1F [Example 237, 1-(6-(2,3-Difluorobenzyl)-1,7-dimethyl-6H-pyrrolo[2,3-e][1,2,4]triazolo[4,3-a]pyridin-4-yl)urea]",≤ 1 µM

row,SMILES,IC50
1,"Cc1cc2c(ccc3nnc(C)n32)n1Cc1ccc(F)cc1 [Example 16, 6-(4-fluorobenzyl)-1,7-dimethyl-6H-pyrrolo[2,3-e][1,2,4]triazolo[4,3-a]pyridine]",≤ 1 µM
2,"Cc1cc2c(cc(NC(N)=O)c3nnc(C)n32)n1Cc1c(F)cccc1F [Example 254, 1-(6-(2,6-Difluorobenzyl)-1,7-dimethyl-6H-pyrrolo[2,3-e][1,2,4]triazolo[4,3-a]pyridin-4-yl)urea]",≤ 1 µM
3,"Cc1nnc2ccc3c(cc(-c4cccs4)n3Cc3ccccc3)n12 [Example 73, 6-benzyl-1-methyl-7-(2-thienyl)-6H-pyrrolo[2,3-e][1,2,4]triazolo[4,3-a]pyridine]",≤ 1 µM
4,"Cc1cc2c(cc(NC3CCN(C(C)C)CC3)c3nnc(C)n32)n1Cc1ccccc1 [Example 213, 6-Benzyl-N-(1-isopropylpiperidin-4-yl)-1,7-dimethyl-6H-pyrrolo[2,3-e][1,2,4]triazolo[4,3-a]pyridin-4-amine]",≤ 1 µM
5,"Cc1cc2c(ccc3nnc(C)n32)n1Cc1ccc2ccccc2n1 [Example 21, 1,7-dimethyl-6-(quinolin-2-ylmethyl)-6H-pyrrolo[2,3-e][1,2,4]triazolo[4,3-a]pyridine]",≤ 1 µM
6,"CCNC(=O)CCn1ccc(-c2cc3c(ccc4nnc(C)n43)n2Cc2cccc(Cl)c2)n1 [Example 175, 3-{3-[6-(3-Chlorobenzyl)-1-methyl-6H-pyrrolo[2,3-e][1,2,4]triazolo[4,3-a]pyridin-7-yl]-1H-pyrazol-1-yl}-N-ethylpropanamide trifluoroacetate salt]",≤ 1 µM
7,"Cc1cc2c(ccc3nnc(C)n32)n1Cc1cccc(NC(N)=O)c1 [Example 44, N-{3-[(1,7-dimethyl-6H-pyrrolo[2,3-e][1,2,4]triazolo[4,3-a]pyridin-6-yl)methyl]phenyl}urea]",1 to 10 µM
8,"Cc1cc2c(cc(NC3CCNCC3)c3nnc(C)n32)n1Cc1ccccc1 [Example 206, 6-Benzyl-1,7-dimethyl-N-piperidin-4-yl-6H-pyrrolo[2,3-e][1,2,4]triazolo[4,3-a]pyridin-4-amine]",≤ 1 µM
9,"CCNC(=O)Nc1cccc(Cn2c(C)cc3c2ccc2nnc(C)n23)c1 [Example 43, N-{3-[(1,7-dimethyl-6H-pyrrolo[2,3-e][1,2,4]triazolo[4,3-a]pyridin-6-yl)methyl]phenyl}-N′-ethylurea trifluoroacetate salt]",1 to 10 µM
10,"Cc1cc2c(cc(Nc3nc4ccccc4[nH]3)c3nnc(C)n32)n1Cc1ccccc1 [Example 205, N-1H-Benzimidazol-2-yl-6-benzyl-1,7-dimethyl-6H-pyrrolo[2,3-e][1,2,4]triazolo[4,3-a]pyridin-4-amine trifluoroacetate salt]",≤ 1 µM
11,"Cc1cc2c(cc(Nc3ccccn3)c3nnc(C)n32)n1Cc1ccccc1 [Example 240, 6-benzyl-1,7-Dimethyl-N-(pyridin-2-yl)-6H-pyrrolo[2,3-e][1,2,4]triazolo[4,3-a]pyridin-4-amine]",1 to 10 µM
12,"Cc1nnc2ccc3c(cc(-c4ccn(C5CN(C(=O)C6CC6)C5)n4)n3Cc3cccc(Cl)c3)n12 [Example 164, 6-(3-Chlorobenzyl)-7-{1-[1-(cyclopropylcarbonyl)azetidin-3-yl]-1H-pyrazol-3-yl}-1-methyl-6H-pyrrolo[2,3-e][1,2,4]triazolo[4,3-a]pyridine trifluoroacetate salt]",≤ 1 µM
13,"Cc1cc2c(cc(N[C@H]3CC[C@@H](N(C)C)CC3)c3nnc(C)n32)n1Cc1ccccc1 [Example 222, cis-N′-(6-Benzyl-1,7-dimethyl-6H-pyrrolo[2,3-e][1,2,4]triazolo[4,3-a]pyridin-4-yl)-N,N-dimethylcyclohexane-1,4-diamine]",1 to 10 µM
14,"Cc1nnc2ccc3c(cc(-c4ccn(C)n4)n3Cc3cc(Cl)cc(CN4CCC4)c3)n12 [Example 185, 6-[3-(Azetidin-1-ylmethyl)-5-chlorobenzyl]-1-methyl-7-(1-methyl-1H-pyrazol-3-yl)-6H-pyrrolo[2,3-e][1,2,4]triazolo[4,3-a]pyridine tris(trifluoroacetate) salt]",≤ 1 µM
15,"CNC(=O)c1cccc(Cn2c(C)cc3c2ccc2nnc(C)n23)c1 [Example 32, 3-[(1,7-dimethyl-6H-pyrrolo[2,3-e][1,2,4]triazolo[4,3-a]pyridin-6-yl)methyl]-N-methylbenzamide trifluoroacetate salt]",≤ 1 µM
16,"CNCc1cccc(Cn2c(C)cc3c2ccc2nnc(C)n23)c1 [Example 41, 1-{3-[(1,7-dimethyl-6H-pyrrolo[2,3-e][1,2,4]triazolo[4,3-a]pyridin-6-yl)methyl]phenyl}-N-methylmethanamine]",≤ 1 µM
17,"Cc1nnc2ccc3c(cc(-c4cn(C)cn4)n3Cc3ccccc3)n12 [Example 70, 6-benzyl-1-methyl-7-(1-methyl-1H-imidazol-4-yl)-6H-pyrrolo[2,3-e][1,2,4]triazolo[4,3-a]pyridine]",≤ 1 µM

# Same assay, conditions: KMS.12.BM human myeloma cells, 3 days, Cell Titer-GLO ATP quantitation; read-out: KMS cellular IC50
row,SMILES,IC50
1,"Cc1nnc2ccc3c(cc(-c4cc[nH]n4)n3Cc3cccc(CN4CCC4)c3)n12 [Example 182, 6-[3-(Azetidin-1-ylmethyl)benzyl]-1-methyl-7-(1H-pyrazol-3-yl)-6H-pyrrolo[2,3-e][1,2,4]triazolo[4,3-a]pyridine tris(trifluoroaceate) salt]",≤ 1 µM
